Patent publication US10208033B2, “β-carboline, dihydro-β-carboline and tetrahydro-β-carboline alkaloid derivatives and preparation methods same and use in aspects of preventing and treating plant viruses, fungicides and insecticides” (NANKAI UNIVERSITY, priority 2013, dated 2019)

What was measured:
Fusarium graminearumt = experiment: microbe, parasite or virus in culture; format: cell-based; details: 50 mg/kg
[1] = system: tobacco mosaic virus (TMV); experiment: Anti-TMV in vitro effect (half-leaf soaking); format: cell-based, tobacco mosaic virus (host Nicotiana tabacum L.cv.Xanthi NN)
Rhizoctonia cereali = experiment: Fungicidal (bactericidal) activity in vitro, PDA colony diameter; format: cell-based; details: 50 mg/kg
armyworms = format: in vivo; details: concentration 600 mg/kg
[2] = system: tobacco mosaic virus (TMV); experiment: Anti-TMV in vivo therapeutic effect; set-up: species or system tobacco mosaic virus (host Nicotiana tabacum L.cv.Xanthi NN)
Fusarium fujikuroi = experiment: Fungicidal (bactericidal) activity in vitro, PDA colony diameter; format: cell-based; details: 50 mg/kg
[3] = system: Colletotrichum orbiculare; experiment: as above; format: cell-based; details: 50 mg/kg
Botrytis cinerea = experiment: as above; format: cell-based; details: 50 mg/kg
corn borers = details: concentration 600 mg/kg
[4] = system: tobacco mosaic virus (TMV); experiment: Anti-TMV activity, overall statements on Table 1; format: in vivo, tobacco mosaic virus (host Nicotiana tabacum L.cv.Xanthi NN); details: 100 μg/mL versus ningnanmycin at 100 μg/mL
potato late blight = experiment: microbe, parasite or virus in culture; format: cell-based
Phytophthora capsici = experiment: Fungicidal (bactericidal) activity in vitro, PDA colony diameter; format: cell-based; details: 50 mg/kg
[5] = system: tobacco mosaic virus (TMV); experiment: Anti-TMV in vivo protective effect; set-up: species or system tobacco mosaic virus (host Nicotiana tabacum L.cv.Xanthi NN)
Alternaria solani = experiment: Fungicidal (bactericidal) activity in vitro, PDA colony diameter; format: cell-based; details: 50 mg/kg
[6] = system: armyworms, cotton bollworms and corn borers; experiment: Insecticidal activity, overall statements on Table 3; format: in vivo; details: Table 3, 600 mg/kg
Sclerotinia scleotiorum = experiment: Fungicidal (bactericidal) activity in vitro, PDA colony diameter; format: cell-based; details: 50 mg/kg
Macrophoma kawatsukai = experiment: as above; format: cell-based; details: 50 mg/kg
Rhizoctonia solani = experiment: as above; format: cell-based; details: 50 mg/kg
cotton bollworms = experiment: whole plant or invertebrate; details: concentration 600 mg/kg
Protocol: Experimental method of cotton bollworms: feed and drug mixing method: measure 3 mL of prepared solution and add it to about 27 g of newly prepared feed, thereby obtaining needed concentration through dilution by 10 times.

[7] = system: tobacco mosaic virus (TMV); experiment: Anti-TMV in vivo inactivation; set-up: species or system tobacco mosaic virus (host Nicotiana tabacum L.cv.Xanthi NN)
cucumber fusarium wilt = experiment: Fungicidal (bactericidal) activity in vitro, PDA colony diameter; format: cell-based; details: 50 mg/kg
Bipolaria maydis = experiment: organism not typed; format: cell-based; details: 50 mg/kg
Cercospora arachidicola = experiment: Fungicidal (bactericidal) activity in vitro, PDA colony diameter; format: cell-based; details: 50 mg/kg
mosquito larvae = experiment: whole plant or invertebrate; details: for Mosquito larvae Mortality (%): 24 h
Method in brief: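 Compound dissolved in acetone (or other solvent) to a 1000 ppm stock and diluted in water to 5 ppm. Ten Culex pipiens pallens larvae at the start of the fourth instar, laboratory-reared, added per beaker; solvent-only aqueous control.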

Row | SMILES | Bactericidal activity (%) Fusarium graminearumt (Fusarium graminearumt) | Relative inhibition rate (%) In vitro activity ([1]; treatment dose 100 μg/mL) | Relative inhibition rate (%) In vitro activity ([1]; treatment dose 500 μg/mL) | Bactericidal activity (%) Rhizoctonia cereali (Rhizoctonia cereali) | Armyworm Mortality (%) (armyworms) | Relative inhibition rate (%) In vivo therapy ([2]; treatment dose 100 μg/mL) | Relative inhibition rate (%) In vivo therapy ([2]; treatment dose 500 μg/mL) | Bactericidal activity (%) Fusarium fujikuroi (Fusarium fujikuroi) | Bactericidal activity (%) Colletotrichum orbiculare [3] | Bactericidal activity (%) Botrytis cinerea (Botrytis cinerea) | Corn borer Mortality (%) (corn borers) | Bactericidal activity (%) potato late blight (potato late blight) | Bactericidal activity (%) Phytophthora capsici (Phytophthora capsici) | Relative inhibition rate (%) In vivo protection ([5]; treatment dose 100 μg/mL) | Relative inhibition rate (%) In vivo protection ([5]; treatment dose 500 μg/mL) | Bactericidal activity (%) Alternaria solani (Alternaria solani) | activity against armyworms, cotton bollworms and corn borers (in words) [6] | Bactericidal activity (%) Sclerotinia scleotiorum (Sclerotinia scleotiorum) | Bactericidal activity (%) Macrophoma kawatsukai (Macrophoma kawatsukai) | Bactericidal activity (%) Rhizoctonia solani (Rhizoctonia solani) | further results
1 | C[C@@H]1N[C@H](C(=O)NN=Cc2ccc[nH]2)Cc2c1[nH]c1ccccc21 [Ic-19, (1S, 3S)—N′-(pyrrole-2-methylene)-1-methyl-2,3,4,9-tetrahydropyridino [3,4-b] indol-3-formylhydrazine] | 41.4% | 8.8% | 49.5% | 74.5% | 70% | 27.8% | 63.4% | 14.3% | 29.6% | 22.7% | 60% | 24.0% | 42.1% | 30% | 54.7% | 15.0% | broad-spectrum activity | 58.8% | 97.2% | 32.9% | anti-TMV activity compared with ningnanmycin [4]: equivalent to the activity of commercial variety ningnanmycin; Cotton bollworm Mortality (%) (cotton bollworms): 50%; Relative inhibition rate (%) In vivo inactivation ([7]; treatment dose 100 μg/mL): 20.2%; Relative inhibition rate (%) In vivo inactivation ([7]; treatment dose 500 μg/mL): 61.3%; Bactericidal activity (%) Cucumber fusarium wilt (cucumber fusarium wilt): 23.1%; Bactericidal activity (%) Bipolaria maydis (Bipolaria maydis): 28.0%; Bactericidal activity (%) Cercospora arachidicola (Cercospora arachidicola): 23.5%; activity against culex pipiens larvae (in words) (mosquito larvae; at 5 mg/kg): still show high activity; Mosquito larvae Mortality (%) (mosquito larvae; concentration 5 mg/kg): 80%; Mosquito larvae Mortality (%) (mosquito larvae; concentration 10 mg/kg): 100%
2 | C[C@@H]1N[C@H](C(=O)NCC2CCCO2)Cc2c1[nH]c1ccccc21 (stereo partly drawn) [Ib-20, (1S, 3S)—N-((tetrahydrofuran-2)-methyl)-1-methyl-2,3,4,9-tetrahydro-pyridino [3,4-b] indol-3-formamide] | 24.1% | 0% | 37.5% | 47.1% | 65% | 0% | 34.2% | 21.4% | 18.5% | 36.4% | 60% | 20.0% | 18.4% | 0% | 29.6% | 20.0% | broad-spectrum activity | 0.0% | 27.8% | 13.2% | Cotton bollworm Mortality (%) (cotton bollworms): 30%; Relative inhibition rate (%) In vivo inactivation ([7]; treatment dose 100 μg/mL): 9.8%; Relative inhibition rate (%) In vivo inactivation ([7]; treatment dose 500 μg/mL): 39.1%; Bactericidal activity (%) Cucumber fusarium wilt (cucumber fusarium wilt): 15.4%; Bactericidal activity (%) Bipolaria maydis (Bipolaria maydis): 16.0%; Bactericidal activity (%) Cercospora arachidicola (Cercospora arachidicola): 23.5%; Mosquito larvae Mortality (%) (mosquito larvae; concentration 5 mg/kg): 40%; Mosquito larvae Mortality (%) (mosquito larvae; concentration 10 mg/kg): 100%
